What was measured:
[1] = Inhibition of chitotriosidase after 60 mins
Mus musculus [2] = assay: Antiallergic activity in C57BL/6 mouse assessed as reduction of HDM/CRA-induced chitinase activity in bronchoalveolar lavage fluid at 50 mg/kg, po administered twice daily; assay type: functional, C57BL6, Lung; parameters: scale not given: the % may be the effect or the level left
[3] = biological target: T1, Acidic mammalian chitinase (Homo sapiens, UniProt Q9BZP6); assay: Inhibition of acidic mammalian chitinase after 60 mins
[4] = biological target: T1, Acidic mammalian chitinase; assay: Binding affinity to biotinylated-acidic mammalian chitinase
Mus musculus [5] = assay: Antiallergic activity in C57BL/6 mouse assessed as reduction of HDM/CRA-induced chitinase activity in bronchoalveolar lavage fluid at 10 mg/kg, ip administered once daily; assay type: functional, C57BL6, Lung; parameters: scale not given: the % may be the effect or the level left; conditions: route intraperitoneal

T1 sequence (Q9BZP6 whole entry): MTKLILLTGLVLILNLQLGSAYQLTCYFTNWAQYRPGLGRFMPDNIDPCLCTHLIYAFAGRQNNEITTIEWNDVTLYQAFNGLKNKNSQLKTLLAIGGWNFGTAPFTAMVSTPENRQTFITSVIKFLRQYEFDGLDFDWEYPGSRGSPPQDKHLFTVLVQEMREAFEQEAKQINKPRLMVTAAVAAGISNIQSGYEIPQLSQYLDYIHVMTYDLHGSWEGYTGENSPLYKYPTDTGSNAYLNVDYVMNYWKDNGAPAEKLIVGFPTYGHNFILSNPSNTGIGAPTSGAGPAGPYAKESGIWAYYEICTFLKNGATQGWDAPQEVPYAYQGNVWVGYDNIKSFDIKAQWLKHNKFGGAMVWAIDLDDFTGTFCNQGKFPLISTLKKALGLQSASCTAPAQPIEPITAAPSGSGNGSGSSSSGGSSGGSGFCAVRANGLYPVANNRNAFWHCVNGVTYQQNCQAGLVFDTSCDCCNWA

SMILES	IC50 [1] [µM]	further results
Nc1n[nH]c(N2CCN(CCOc3ccc(Br)cc3)CC2)n1	4.23	Activity (Mus musculus [2]): 43%
Cc1[nH]c2ccccc2c1CN1CCN(c2ccccn2)CC1	1.34	
N=C(N)N1CCN(c2ccc(Cl)cc2)CC1	> 100	
NC(=O)c1cccnc1N1CCNCC1	90.1	IC50 [3]: 102 µM; Kd [4]: 141 µM
C[C@@H]1C[C@H]2[C@@H]3CCC4=CC(=O)C=C[C@]4(C)[C@@]3(F)[C@@H](O)C[C@]2(C)[C@@]1(O)C(=O)CO [DEXAMETHASONE]		Activity (Mus musculus [5]): 60%
